Consider 19 compounds from PMC8074465, “Synthesis of oxadiazole-2-oxide derivatives as potential drug candidates for schistosomiasis targeting SjTGR” (Parasites & Vectors, 2021).

Several values for one entry are separate records, joined by “and”; a condition that tells them apart may be missing. Equal values may be shown once. A value given as a limit tells only on which side of the number the result lay.

The target in one test is T1, rSjTGR-Sec (Schistosoma japonicum, UniProt B5THG7).
T1 sequence (B5THG7 1-596): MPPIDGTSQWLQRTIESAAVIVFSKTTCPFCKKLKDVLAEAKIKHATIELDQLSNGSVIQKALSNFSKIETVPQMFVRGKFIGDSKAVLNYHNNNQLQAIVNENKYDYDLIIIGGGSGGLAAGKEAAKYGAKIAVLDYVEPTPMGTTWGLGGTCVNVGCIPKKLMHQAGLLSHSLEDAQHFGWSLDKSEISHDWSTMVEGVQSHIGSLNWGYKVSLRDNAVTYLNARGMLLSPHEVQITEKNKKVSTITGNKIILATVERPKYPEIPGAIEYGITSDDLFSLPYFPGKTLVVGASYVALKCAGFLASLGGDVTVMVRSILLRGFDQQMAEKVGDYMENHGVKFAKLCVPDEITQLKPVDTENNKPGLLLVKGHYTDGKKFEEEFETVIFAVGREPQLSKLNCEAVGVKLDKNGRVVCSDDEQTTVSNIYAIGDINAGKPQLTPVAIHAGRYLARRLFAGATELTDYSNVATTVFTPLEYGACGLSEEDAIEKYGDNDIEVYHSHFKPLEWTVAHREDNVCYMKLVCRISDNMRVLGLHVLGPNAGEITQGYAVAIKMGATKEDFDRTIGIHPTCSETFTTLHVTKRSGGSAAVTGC
Put plainly: Inhibition of TrxR activity of rSjTGR-Sec (DTNB reduction, absorbance 412 nm). Format: biochemical. Particulars: DTNB, pH 7.0, 25 °C, triplicate, >50 μM = flat response within range tested, read-out: IC50 of rSjTGR-Sec. On the procedure: The rSjTGR-Sec was expressed and harvested as described previously. […] The rSjTGR-Sec was purified by His Mag™ Agarose beads according to manufacturer’s instructions. The concentration of purified rSjTGR-Sec was determined using a Bradford assay kit (Sangon, China), and the protein was identified by sodium dodecyl sulfate polyacrylamide gel electrophoresis (SDS-PAGE) and stored at 4 °C [20].
The novel furoxan derivatives in this work were dissolved in DMSO with a storage solution concentration of 64 millimoles per liter. The analysis of TrxR activity of SWAP containing wtSjTGR and rSjTGR-Sec was performed based on methods described previously. Analysis of the inhibitory activity of the compounds against the TrxR activity of SWAP containing wtSjTGR and rSjTGR-Sec described in this paper was also based on a previously described method. The reaction was performed in 0.1 M potassium phosphate buffer (pH 7.0) containing 10 mM EDTA, 100 µM nicotinamide adenine dinucleotide phosphate (NADPH), 0.2 µg supernatant of SWAP containing wtSjTGR or 0.6 µg rSjTGR-Sec, and the studied compounds with different concentrations at 25 °C in a final volume of 200 μL, and was initiated by adding 3 mM DTNB. […] All assays were done in triplicate.
For `[O-][n+]1onc(-c2ccncc2)c1CO` [6a, 3-(hydroxymethyl)-4-(pyridin-4-yl)-1,2,5-oxadiazole 2-oxide], the IC50 amounted to 0.036 ± 0.002 µM.
`[O-][n+]1onc(-c2cccnc2)c1CO` [6b, 3-(hydroxymethyl)-4-(pyridin-3-yl)-1,2,5-oxadiazole 2-oxide]: the IC50 was found to be 0.39 ± 0.02 µM.
Take `COc1ccc(-c2no[n+]([O-])c2CO)cn1` [6c, 3-(hydroxymethyl)-4-(6-methoxypyridin-3-yl)-1,2,5-oxadi-azole 2-oxide]: the IC50 was 2.4 µM and 2.38 µM.
`[O-][n+]1onc(-c2ccc(C(F)(F)F)nc2)c1CO` [6d, 3-(hydroxymethyl)-4-(6-(trifluoromethyl)pyridine-3-yl)-1,2,5-oxadiazole 2-oxide]: the IC50 turned out to be 0.0558 ± 0.00318 µM.
Same read-out and setting: as for `CC(=O)OCc1c(-c2ccncc2)no[n+]1[O-]` [7aa, 3-(acetoxymethyl)-4-(pyridin-4-yl)-1,2,5-oxadiazole 2-oxide], the figure is over 50 µM.
Same read-out and setting: as for `CCC(=O)OCc1c(-c2ccncc2)no[n+]1[O-]` [7ab, 3-((propionyloxy)methyl)-4-(pyridin-4-yl)-1,2,5-oxadiazole 2-oxide], the figure is over 50 µM; as for `CCCC(=O)OCc1c(-c2ccncc2)no[n+]1[O-]` [7ac, 3-((butyryloxy)methyl)-4-(pyridin-4-yl)-1,2,5-oxadiazole 2-oxide], over 50 µM; as for `CC(C)(C)C(=O)OCc1c(-c2ccncc2)no[n+]1[O-]` [7ad, 3-((pivaloyloxy)methyl)-4-(pyridin-4-yl)-1,2,5-oxadiazole 2-oxide], over 50 µM.
With `O=C(CCl)OCc1c(-c2ccncc2)no[n+]1[O-]` [7ae, 3-((2-chloroacetoxy)methyl)-4-(pyridin-4-yl)-1,2,5-oxadiazole 2-oxide], the IC50 was over 50 µM.
For `O=C(OCc1c(-c2ccncc2)no[n+]1[O-])c1ccccc1` [7af, 3-((benzoyloxy)methyl)-4-(pyridin-4-yl)-1,2,5-oxadiazole 2-oxide], the IC50 turned out to be 3.23 ± 0.05 µM.
Take `O=C(OCc1c(-c2ccncc2)no[n+]1[O-])c1ccc(F)cc1` [7ag, 3-(((4-fluorobenzoyl)oxy)methyl)-4-(pyridin-4-yl)-1,2,5-oxadiazole 2-oxide]: the IC50 is over 50 µM.
`O=C(OCc1c(-c2ccncc2)no[n+]1[O-])c1c(F)c(F)c(F)c(F)c1F` [7ah, 3-(((perfluorobenzoyl)oxy)methyl)-4-(pyridin-4-yl)-1,2,5-oxadiazole 2-oxide]: the IC50 is over 50 µM.
The same measure, in the same setting: as for `O=C(OCc1c(-c2ccncc2)no[n+]1[O-])c1cc(C(F)(F)F)cc(C(F)(F)F)c1` [7ai, 3-(((3,5-bis(trifluoromethyl)benzoyl)oxy)methyl)-4-(pyridin-4-yl)-1,2,5-oxadiazole 2-oxide], the figure is over 50 µM; as for `CC(=O)OCc1c(-c2cccnc2)no[n+]1[O-]` [7ba, 3-(acetoxymethyl)-4-(pyridin-3-yl)-1,2,5-oxadiazole 2-oxide], over 50 µM; as for `CCC(=O)OCc1c(-c2cccnc2)no[n+]1[O-]` [7bb, 3-((propionyloxy)methyl)-4-(pyridin-3-yl)-1,2,5-oxadiazole 2-oxide], over 50 µM.
Same read-out and setting: as for `CCCC(=O)OCc1c(-c2cccnc2)no[n+]1[O-]` [7bc, 3-((butyryloxy)methyl)-4-(pyridin-3-yl)-1,2,5-oxadiazole 2-oxide], the figure is over 50 µM.
Take `CC(C)(C)C(=O)OCc1c(-c2cccnc2)no[n+]1[O-]` [7bd, 3-((pivaloyloxy)methyl)-4-(pyridin-3-yl)-1,2,5-oxadiazole 2-oxide]: the IC50 was over 50 µM.
Turning to `O=C(CCl)OCc1c(-c2cccnc2)no[n+]1[O-]` [7be, 3-((2-chloroacetoxy)methyl)-4-(pyridin-3-yl)-1,2,5-oxadiazole 2-oxide], the IC50 was 14.8 ± 3.67 µM.
On to `O=C(OCc1c(-c2cccnc2)no[n+]1[O-])c1ccccc1` [7bf, 3-((benzoyloxy)methyl)-4-(pyridin-3-yl)-1,2,5-oxadiazole 2-oxide], for which the IC50 is over 50 µM.

Staying with this test, now noted: furoxan as positive control.
As for `O=C(CCl)OCc1c(-c2ccncc2)no[n+]1[O-]` [7ae, 3-((2-chloroacetoxy)methyl)-4-(pyridin-4-yl)-1,2,5-oxadiazole 2-oxide], the “inhibitory effect on rSjTGR-Sec (in words)” value is “did not show an effective inhibitory effect”.

The test is the same for the next values; noted with them: read-out: IC50 of rSjTGR-Sec.
Take `[O-][n+]1onc(-c2ccncc2)c1CO` [6a, 3-(hydroxymethyl)-4-(pyridin-4-yl)-1,2,5-oxadiazole 2-oxide]: the IC50 was found to be 0.036 µM.
Take `[O-][n+]1onc(-c2ccc(C(F)(F)F)nc2)c1CO` [6d, 3-(hydroxymethyl)-4-(6-(trifluoromethyl)pyridine-3-yl)-1,2,5-oxadiazole 2-oxide]: the IC50 is 0.0075 µM and 0.0558 µM.

By IC50 is commonly meant the point on the concentration scale where inhibition reaches its midpoint.
